# Source: US6875760B2 (Novo Nordisk A/S, priority 1999, dated 2005)
# Target: T1, human glucagon receptor (Homo sapiens, UniProt P47871)
# T1 construct: expressed in transfected cells; host or cells: BHK (baby hamster kidney) cells
# Assay: Glucagon Binding Assay (III)
# Conditions: BHK cell membranes, WGA SPA beads, 125I-glucagon; read-out: Glu Bd Assay (III) IC50
# Protocol: BHK (baby hamster kidney cell line) cells were transfected with the human glucagon receptor and a membrane preparation of the cells was prepared.
# All steps in the membrane preparation were kept on ice or performed at 4° C. BHK cells were harvested and centrifuged. […] The pellet was resuspended in homogenisation buffer, homogenised 2×10 sec (Polytron) and additional homogenisation buffer was added. […] (Polytron).
# The glucagon binding assay was carried out in opti plates (Polystyrene Microplates, Packard). […] Finally 50 μL WGA beads containing 1 mg beads were transferred to the well. The assay was incubated for 4 hours on a shaker and then settled for 8-48 hours. The opti plates were counted in a Topcounter. Non-specific binding was determined with 500 nM of glucagon.
# T1 sequence (P47871 26-477): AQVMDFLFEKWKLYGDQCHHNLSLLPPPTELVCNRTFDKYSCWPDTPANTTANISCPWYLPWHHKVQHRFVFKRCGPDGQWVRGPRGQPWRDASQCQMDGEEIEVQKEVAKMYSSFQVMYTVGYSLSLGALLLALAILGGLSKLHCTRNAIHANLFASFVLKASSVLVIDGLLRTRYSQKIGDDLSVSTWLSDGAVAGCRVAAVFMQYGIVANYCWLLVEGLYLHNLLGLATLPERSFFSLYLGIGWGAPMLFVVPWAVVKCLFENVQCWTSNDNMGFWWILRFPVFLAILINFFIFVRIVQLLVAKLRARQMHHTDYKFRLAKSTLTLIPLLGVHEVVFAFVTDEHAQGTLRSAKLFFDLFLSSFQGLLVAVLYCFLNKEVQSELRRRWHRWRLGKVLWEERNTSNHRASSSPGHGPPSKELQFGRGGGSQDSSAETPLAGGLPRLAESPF
row,Compound,IC50 [nM]
1,"O=C(O)CCNC(=O)c1ccc(CN(C(=O)Nc2ccc(OC(F)(F)F)cc2)[C@H]2CC[C@@H](c3ccccc3)CC2)cc1 [Example 80, 3-{4-[1-(4-cis-Phenylcyclohexyl)-3-(4-trifluoromethoxyphenyl)ureidomethyl]benzoylamino}propionic acid]",229
2,"CC(C)(C)C1CCC(N(Cc2ccc(C(=O)NCCC(=O)O)cc2)C(=O)Nc2ccc(Cl)cc2)CC1 (stereo not shown) [Example 34, 3-{4-[1-(4-tert-Butylcyclohexyl)-3-(4-chlorophenyl)ureidomethyl]benzoyl}aminopropionic acid]",462
3,"CCCCOc1ccc(NC(=O)N(Cc2ccc(C(=O)Nc3nn[nH]n3)cc2)c2ccc(C3CCCCC3)cc2)cc1S(C)(=O)=O [Example 368, 4-[3-(4-Butoxy-3-methylsulfonylphenyl)-1-(4-cyclohexylphenyl)ureidomethyl]-N-(2H-tetrazol-5-yl)benzamide]",37
4,"O=C(O)CCNC(=O)c1ccc(CN(C(=O)Nc2ccc(OC(F)(F)F)cc2)C2CCC(C3CC3)CC2)cc1 (stereo not shown) [Example 249, 3-{4-[1-(4-Cyclopropylcyclohexyl)-3-(4-trifluoromethoxyphenyl)ureidomethyl]benzoylamino}propionic acid]",320
5,"O=C(O)CCNC(=O)c1ccc(CN(C(=O)Nc2ccc(OC(F)(F)F)cc2)C2CCC3(CC2)OCCO3)cc1 [Example 89, 3-{4-[1-(1,4-Dioxaspiro[4.5]dec-8-yl)-3-(4-trifluoromethoxyphenyl)ureidomethyl]benzoylamino}propionic acid]",1210

# Now from value to molecule:
row,IC50 [nM],Compound
1,62,"CSc1cccc(NC(=O)N(Cc2ccc(C(=O)Nc3nn[nH]n3)cc2)c2ccc(C3CCCCC3)cc2)c1 [Example 302, 4-[1-(4-Cyclohexylphenyl)-3-(3-methylsulfanylphenyl)ureidomethyl]-N-(2H-tetrazol-5-yl)benzamide]"
2,17,"CC(C)(C)c1cccc(NC(=O)N(Cc2ccc(C(=O)Nc3nn[nH]n3)cc2)c2ccc(C3CCCCC3)cc2)c1 [Example 357, 4-[1-(4-Cyclohexylphenyl)-3-(3-tert-butylphenyl)ureidomethyl]-N-(2H-tetrazol-5-yl)benzamide]"
3,391,"CC(C)(C)[C@H]1CC[C@H](N(Cc2ccc(C(=O)NCCC(=O)NO)cc2)C(=O)Nc2ccc(OC(F)(F)F)cc2)CC1 [Example 376, 4-[1-(trans-4-tert-Butylcyclohexyl)-3-(4-trifluoromethoxyphenyl)ureidomethyl]-N-(2-hydroxycarbamoylethyl)benzamide]"
4,620,"CC(C)(C)C1CCC(N(Cc2ccc(C(=O)Nc3nn[nH]n3)cc2)C(=O)Cc2ccc(S(C)(=O)=O)cc2)CC1 (stereo not shown) [Example 517, 4-({(4-tert-Butylcyclohexyl)-[2-(4-methylsulfonylphenyl)acetyl]amino}methyl)-N-(2H-tetrazol-5-yl)benzamide]"
5,948,"O=C(Nc1nn[nH]n1)c1ccc(CN(C(=O)c2cc(-c3ccc(Cl)cc3)cs2)c2ccc(C3CCCCC3)cc2)cc1 [Example 565, 4-(4-Chlorophenyl)thiophene-2-carboxylic acid (4-cyclohexylphenyl)-[4-(2H-tetrazol-5-ylcarbamoyl)benzyl]amide]"
6,56,"O=C(Nc1nn[nH]n1)c1ccc(CN(C(=O)Nc2nc3ccc(OC(F)(F)F)cc3s2)c2ccc(C3CCCCC3)cc2)cc1 [Example 341, 4-[1-(4-Cyclohexylphenyl)-3-(6-trifluoromethoxybenzothiazol-2-yl)ureidomethyl]-N-(2H-tetrazol-5-yl)benzamide]"
7,184,"CCCc1ccc(N(Cc2ccc(C(=O)NCCC(=O)O)cc2)C(=O)Nc2ccc(OC(F)(F)F)cc2)cc1 [Example 439, 3-{4-[1-(4-Propylphenyl)-3-(4-trifluoromethoxyphenyl)ureidomethyl]benzoylamino}propionic acid]"

# Same assay, conditions: Glu Bd Assay (III) IC50 (nM), BHK cell membranes, WGA SPA beads, 125I-glucagon
row,Compound,IC50 [nM]
1,"CC(C)(C)[C@H]1CC[C@H](N(Cc2ccc(C(=O)NCCC(=O)O)cc2)C(=O)Nc2cc(Cl)cc(Cl)c2)CC1 [Example 255, 3-{4-[1-(trans-4-tert-Butylcyclohexyl)-3-(3,5-dichlorophenyl)ureidomethyl]benzoylamino}propionic acid]",80
